{"source": "patent US8455688B2", "about": "“HDAC inhibitors” (Lixte Biotechnology, Inc., priority 2007, dated 2013)", "key": {"[1]": {"system": "F. solani", "assay": "Broth dilution antifungal susceptibility testing, F. solani", "type": "cell-based", "details": "Fusarium solani, 48 h, 48 hours, 80% inhibition, read-out: minimum inhibitory concentration (MIC)", "method": "(§1) A total of 23 isolates were tested to include 3 Candida albicans, 3 Candida glabrata, 3 Cryptococcus neoformans, 3 Aspergillus fumigatus, 3 Rhizopus oryzae, 3, Fusarium solani, 3 Pseudallescheria boydii, and 2 […]. All isolates were clinical isolates submitted to the Fungus Testing Laboratory for evaluation. Antifungal susceptibility testing was accomplished according to the methods outlined in the National Committee for Clinical Laboratory Standards, M-27A2, Reference Method for Broth Dilution Antifungal Susceptibility Testing of Yeasts; Approved Standard, and M38-A “Reference Method for Broth Dilution Antifungal Susceptibility Testing of Conidium-Forming Filamentous Fungi; Approved Standard”. This includes testing in RPMI-1640 with glutamine and without bicarbonate, an inoculum size of 0.5-2.5×10^3 for yeasts or […] for moulds, and incubation at 35° C. for 24 and 48 hours. […] Drug concentrations were 0.125-64 μg/ml. A 10 mg portion of each powder was weighed out and added to 1 ml of 100% DMSO for compound 205. The resulting concentration of […] was diluted to a working concentration of 6400 μg/ml for compound 205 in 100% DMSO. All subsequent dilutions were also made using the respective diluents. Final testing concentrations ranged from 0.125-64 μg/ml. The NCCLS recommended medium RPMI-1640 (Hardy Diagnostics, Santa Monica, Calif.) was utilized as the test medium. All isolates in this study were clinical isolates received in the Fungus Testing Laboratory for standard antifungal susceptibility testing and/or identification. Isolates, which were not sent for identification, were confirmed to assure testing integrity. A total of 23 were tested to include 3 Candida albicans, 3 Candida glabrata, 3 Cryptococcus neoformans, 3 Aspergillus fumigatus, 3 Rhizopus oryzae, 3, Fusarium solani, 3 Pseudallescheria boydii, and 2 […]. Minimum inhibitory concentrations (MIC) were determined at the first 24-hour interval where growth could be determined in the drug-free control tube."}, "[2]": {"system": "A. fumigatus", "assay": "Broth dilution antifungal susceptibility testing, A. fumigatus", "type": "cell-based, Aspergillus fumigatus", "details": "80% inhibition; for MIC: Aspergillus fumigatus, read-out: minimum inhibitory concentration (MIC)", "method": "as §1"}, "[3]": {"system": "C. albicans", "assay": "Broth dilution antifungal susceptibility testing, C. albicans", "type": "cell-based, Candida albicans", "details": "50% reduction in turbidity; for MIC: Candida albicans, read-out: minimum inhibitory concentration (MIC)", "method": "as §1"}, "[4]": {"system": "CP Control", "assay": "Broth dilution antifungal susceptibility testing, CP Control", "type": "cell-based", "details": "read-out: minimum inhibitory concentration (MIC)", "method": "as §1"}, "[5]": {"system": "cell line U-87", "assay": "Activity against the cell line U-87", "type": "cell-based, human", "details": "potency on an equimolar basis"}, "[6]": {"system": "T. rubrum", "assay": "Broth dilution antifungal susceptibility testing, T. rubrum", "type": "cell-based, Trichophyton rubrum", "details": "80% inhibition; for MIC: Trichophyton rubrum, read-out: minimum inhibitory concentration (MIC)", "method": "as §1"}, "[7]": {"system": "S. apiospermum", "assay": "Broth dilution antifungal susceptibility testing, S. apiospermum", "type": "cell-based, Pseudallescheria boydii", "details": "80% inhibition; for MIC: Scedosporium apiospermum, read-out: minimum inhibitory concentration (MIC)", "method": "as §1"}, "[8]": {"system": "C. neoformans", "assay": "Broth dilution antifungal susceptibility testing, C. neoformans", "type": "cell-based", "details": "Cryptococcus neoformans, 50% reduction in turbidity, read-out: minimum inhibitory concentration (MIC)", "method": "as §1"}, "[9]": {"system": "R. arrhizus", "assay": "Broth dilution antifungal susceptibility testing, R. arrhizus", "type": "cell-based, Rhizopus oryzae", "details": "80% inhibition; for MIC: Rhizopus arrhizus, read-out: minimum inhibitory concentration (MIC)", "method": "as §1"}, "[10]": {"system": "C. glabrata", "assay": "Broth dilution antifungal susceptibility testing, C. glabrata", "type": "cell-based, Candida glabrata", "details": "50% reduction in turbidity; for MIC: Nakaseomyces glabratus, read-out: minimum inhibitory concentration (MIC)", "method": "as §1"}}, "note": "Where two headings read alike, the source gives them in different places."}
{"compound": "O=C(CCCCCNC(=O)c1ccccc1S)Nc1ccccc1", "note": "[Compound 201, 2-mercapto-N-[5-(phenylcarbamoyl)pentyl]benzamide]", "values": [{"measurement": "MIC", "setting": "[1]; isolate 07-1755", "value": "> 64", "unit": "mg/L"}, {"measurement": "MIC", "setting": "[1]; isolate 07-1867", "value": "> 64", "unit": "mg/L"}, {"measurement": "MIC", "setting": "[2]; 24 h, isolate 05-388, 24 hours", "value": 1, "unit": "mg/L"}, {"measurement": "MIC", "setting": "[2]; 24 h, isolate 06-4126, 24 hours", "value": 0.5, "unit": "mg/L"}, {"measurement": "MIC", "setting": "[2]; 24 h, isolate 07-2039, 24 hours", "value": 1, "unit": "mg/L"}, {"measurement": "MIC", "setting": "[2]; 48 h, isolate 05-388, 48 hours", "value": "> 64", "unit": "mg/L"}, {"measurement": "MIC", "setting": "[2]; 48 h, isolate 07-2039, 48 hours", "value": "> 64", "unit": "mg/L"}, {"measurement": "minimum inhibitory concentration (MIC)", "setting": "[2]; isolate 06-4126, 24 hours", "value": 1, "unit": "mg/L"}, {"measurement": "MIC", "setting": "[3]; 24 h, isolate 07-3006, 24 hours", "value": 8, "unit": "mg/L"}, {"measurement": "MIC", "setting": "[3]; 24 h, isolate 07-3011, 24 hours", "value": 4, "unit": "mg/L"}, {"measurement": "MIC", "setting": "[3]; 24 h, isolate 07-3012, 24 hours", "value": 4, "unit": "mg/L"}, {"measurement": "MIC", "setting": "[3]; 48 h, isolate 07-3006, 48 hours", "value": "> 64", "unit": "mg/L"}, {"measurement": "MIC", "setting": "[3]; 48 h, isolate 07-3011, 48 hours", "value": "> 64", "unit": "mg/L"}, {"measurement": "MIC", "setting": "[3]; 48 h, isolate 07-3012, 48 hours", "value": "> 64", "unit": "mg/L"}, {"measurement": "minimum inhibitory concentration (MIC)", "setting": "[3]; isolate 07-3006, 24 hours", "value": 4, "unit": "mg/L"}, {"measurement": "minimum inhibitory concentration (MIC)", "setting": "[3]; isolate 07-3011, 24 hours", "value": 8, "unit": "mg/L"}, {"measurement": "minimum inhibitory concentration (MIC)", "setting": "[3]; isolate 07-3012, 24 hours", "value": 8, "unit": "mg/L"}, {"measurement": "MIC", "setting": "[4]; 24 hours", "value": 8, "unit": "mg/L"}, {"measurement": "MIC", "setting": "[4]; 48 hours", "value": "> 64", "unit": "mg/L"}, {"measurement": "activity against the cell line U-87", "setting": "[5]", "value": "most potent on an equimolar basis"}, {"measurement": "MIC", "setting": "[6]; 24 h, isolate 07-1743, 24 hours", "value": 2, "unit": "mg/L"}, {"measurement": "MIC", "setting": "[6]; 24 h, isolate 07-2055, 24 hours", "value": 2, "unit": "mg/L"}, {"measurement": "MIC", "setting": "[6]; 48 h, isolate 07-1743, 48 hours", "value": 2, "unit": "mg/L"}, {"measurement": "MIC", "setting": "[6]; 48 h, isolate 07-2055, 48 hours", "value": 2, "unit": "mg/L"}, {"measurement": "minimum inhibitory concentration (MIC)", "setting": "[6]; isolate 07-1743, 24 hours", "value": 1, "unit": "mg/L"}, {"measurement": "minimum inhibitory concentration (MIC)", "setting": "[6]; isolate 07-1743, 48 hours", "value": 1, "unit": "mg/L"}, {"measurement": "minimum inhibitory concentration (MIC)", "setting": "[6]; isolate 07-2055, 24 hours", "value": 1, "unit": "mg/L"}, {"measurement": "minimum inhibitory concentration (MIC)", "setting": "[6]; isolate 07-2055, 48 hours", "value": 1, "unit": "mg/L"}, {"measurement": "MIC", "setting": "[7]; 24 h, isolate 07-1333, 24 hours", "value": 1, "unit": "mg/L"}, {"measurement": "MIC", "setting": "[7]; 24 h, isolate 07-1502, 24 hours", "value": 2, "unit": "mg/L"}, {"measurement": "MIC", "setting": "[7]; 48 h, isolate 07-1333, 48 hours", "value": 1, "unit": "mg/L"}, {"measurement": "MIC", "setting": "[7]; 48 h, isolate 07-1502, 48 hours", "value": 4, "unit": "mg/L"}, {"measurement": "minimum inhibitory concentration (MIC)", "setting": "[7]; isolate 07-1333, 24 hours", "value": 2, "unit": "mg/L"}, {"measurement": "minimum inhibitory concentration (MIC)", "setting": "[7]; isolate 07-1333, 48 hours", "value": 2, "unit": "mg/L"}, {"measurement": "minimum inhibitory concentration (MIC)", "setting": "[7]; isolate 07-1502, 48 hours", "value": 2, "unit": "mg/L"}, {"measurement": "MIC", "setting": "[8]; 24 h, isolate 07-2665, 24 hours", "value": 2, "unit": "mg/L"}, {"measurement": "MIC", "setting": "[8]; 24 h, isolate 07-2737, 24 hours", "value": 2, "unit": "mg/L"}, {"measurement": "MIC", "setting": "[8]; 24 h, isolate 07-2829, 24 hours", "value": 2, "unit": "mg/L"}, {"measurement": "MIC", "setting": "[8]; 48 h, isolate 07-2737, 48 hours", "value": 4, "unit": "mg/L"}, {"measurement": "MIC", "setting": "[8]; 48 h, isolate 07-2829, 48 hours", "value": 2, "unit": "mg/L"}, {"measurement": "MIC", "setting": "[9]; 24 h, isolate 07-2044, 24 hours", "value": 8, "unit": "mg/L"}, {"measurement": "MIC", "setting": "[9]; 24 h, isolate 07-2078, 24 hours", "value": "> 64", "unit": "mg/L"}, {"measurement": "MIC", "setting": "[9]; 48 h, isolate 07-2044, 48 hours", "value": "> 64", "unit": "mg/L"}, {"measurement": "MIC", "setting": "[9]; 48 h, isolate 07-2078, 48 hours", "value": "> 64", "unit": "mg/L"}, {"measurement": "minimum inhibitory concentration (MIC)", "setting": "[9]; isolate 07-2044, 24 hours", "value": 4, "unit": "mg/L"}, {"measurement": "MIC", "setting": "[10]; 24 h, isolate 07-2964, 24 hours", "value": 2, "unit": "mg/L"}, {"measurement": "MIC", "setting": "[10]; 24 h, isolate 07-2965, 24 hours", "value": 1, "unit": "mg/L"}, {"measurement": "MIC", "setting": "[10]; 24 h, isolate 07-3013, 24 hours", "value": 2, "unit": "mg/L"}, {"measurement": "MIC", "setting": "[10]; 48 h, isolate 07-2964, 48 hours", "value": "> 64", "unit": "mg/L"}, {"measurement": "MIC", "setting": "[10]; 48 h, isolate 07-2965, 48 hours", "value": "> 64", "unit": "mg/L"}, {"measurement": "MIC", "setting": "[10]; 48 h, isolate 07-3013, 48 hours", "value": "> 64", "unit": "mg/L"}, {"measurement": "minimum inhibitory concentration (MIC)", "setting": "[10]; isolate 07-2964, 24 hours", "value": 4, "unit": "mg/L"}, {"measurement": "minimum inhibitory concentration (MIC)", "setting": "[10]; isolate 07-2965, 24 hours", "value": 2, "unit": "mg/L"}]}
